From ChEMBL document CHEMBL5303304, “EUbOPEN Chemogenomics Library - IncuCyte” (2023)
Several values for one entry are separate records, joined by “and”; a condition that tells them apart may be missing. Equal values may be shown once.

Legend:
Assay type in all cases: toxicity, cell-based
U2OS = test: Incucyte cell viability with U2OS; details: human, 10 µM, compound concentration 10 uM
Fibroblast = test: Incucyte cell viability with human fibroblast; details: 10 µM, compound concentration 10 uM
HEK-293T = test: Incucyte cell viability with HEK293T; details: human, 10 µM, compound concentration 10 uM
Note: unitless GR value; below 1 slowed growth and below 0 cell loss.

| SMILES | Growth Rate (U2OS; 0 h, replicate number 2) | Growth Rate (U2OS; 6 h, replicate number 1) | Growth Rate (U2OS; 6 h, replicate number 2) | Growth Rate (U2OS; 12 h, replicate number 1) | Growth Rate (U2OS; 12 h, replicate number 2) | Growth Rate (U2OS; 18 h, replicate number 1) | Growth Rate (U2OS; 18 h, replicate number 2) | Growth Rate (U2OS; 24 h, replicate number 1) | Growth Rate (U2OS; 24 h, replicate number 2) | Growth Rate (Fibroblast; 0 h, replicate number 2) | Growth Rate (Fibroblast; 12 h, replicate number 2) | Growth Rate (HEK-293T; 0 h, replicate number 2) | Growth Rate (HEK-293T; 6 h, replicate number 2) | Growth Rate (HEK-293T; 12 h, replicate number 2) | Growth Rate (U2OS; 0 h, replicate number 1) | Growth Rate (Fibroblast; 24 h, replicate number 1) | Growth Rate (HEK-293T; 6 h, replicate number 1) | Growth Rate (HEK-293T; 18 h, replicate number 1) | Growth Rate (HEK-293T; 24 h, replicate number 1) | Growth Rate (Fibroblast; 0 h, replicate number 1) | also measured |
| --- | --- | --- | --- | --- | --- | --- | --- | --- | --- | --- | --- | --- | --- | --- | --- | --- | --- | --- | --- | --- | --- |
| CCNC(=O)c1ccc2c(c1)NC(=O)/C2=C(\Nc1ccc(CN(C)C)cc1)c1ccccc1 | 0.96 | 0.67 and 0.82 | 1 | 0.63 and 0.95 | 0.85 | 0.75 and 0.9 | 0.8 | 0.84 and 0.87 | 0.83 | 0.87 | 0.8 | -1 | 0.16 | 0.83 | – | – | – | – | – | – | Growth Rate (Fibroblast; 6 h, replicate number 2): 0.09 |
| COc1ccc2c(O[C@@H]3C[C@H]4C(=O)N[C@]5(C(=O)O)CC5/C=C\CCCCC[C@H](NC(=O)OC5CCCC5)C(=O)N4C3)cc(-c3csc(NC(=O)C(C)C)n3)nc2c1C (some centres not stated) [BI 1230] | – | 0.71 and 0.63 | 0.86 | – | 0.86 | 0.65 and 0.86 | 0.98 | 0.77 and 0.99 | 0.95 | 0.45 | -0.04 and -0.05 | – | – | – | 0.55 | 0.07 and 0.17 | 0.86 and 0.76 | 0.86 and 0.65 | 0.7 | – | Growth Rate (Fibroblast; 12 h, replicate number 1): 0.15 and 0.2; Growth Rate (HEK-293T; 12 h, replicate number 1): 0.92 and 0.77; Growth Rate (HEK-293T; 24 h, replicate number 2): 0.34 and 0.67 |
| Cc1cc(C)nc(Nc2ncc(C(=O)NCCc3c(C)[nH]c4ccccc34)cn2)c1.Cl | 0.92 | 0.56 | 0.75 | 0.79 | 0.87 | 0.77 | – | 0.98 | – | – | – | – | 0.14 | 0.82 | – | – | 0.92 | 0.94 | 0.99 | -1 | Growth Rate (Fibroblast; 24 h, replicate number 2): 0.93; Growth Rate (HEK-293T; 18 h, replicate number 2): 1 |
| C[C@@H]1OCC2(CCN(c3cnc(Sc4ccnc(N)c4Cl)c(N)n3)CC2)[C@@H]1N [BATOPROTAFIB] | – | 0.3 | 0.99 | 0.53 | 0.78 | 0.78 | 0.91 | 0.69 | 0.99 | 0.47 | 0.8 | -0.24 | – | – | 0.89 | – | – | – | – | -1 | Growth Rate (Fibroblast; 6 h, replicate number 2): -0.69; Growth Rate (HEK-293T; 0 h, replicate number 1): 0.52 |
| O=C(NCCN1CCOCC1)c1ccc2nn(CCOc3ccc(Cl)cc3)cc2c1 | 0.25 | 0.71 | 0.98 | – | 0.88 | – | – | 0.93 | – | -0.92 | 0.78 | 0.3 | 0.26 | 0.18 | – | 0.92 | 0.47 | 0.71 | 0.72 | -1 | Growth Rate (Fibroblast; 6 h, replicate number 1): 0.63; Growth Rate (Fibroblast; 6 h, replicate number 2): 0.87; Growth Rate (Fibroblast; 18 h, replicate number 1): 0.86; Growth Rate (Fibroblast; 18 h, replicate number 2): 0.98; Growth Rate (HEK-293T; 0 h, replicate number 1): 0.54; Growth Rate (HEK-293T; 12 h, replicate number 1): 0.82; Growth Rate (HEK-293T; 18 h, replicate number 2): 0.47; Growth Rate (HEK-293T; 24 h, replicate number 2): 0.61 |
| CCn1c(CNC(=O)c2ncc(C)nc2N)[n+](CC)c2ccc(C(=O)N(C)CCN(C)C)cc21.Cl.Cl.[Cl-] | 0.31 | 0.58 | 0.99 | 0.62 | 0.9 | – | – | 0.97 | – | -0.3 | – | – | – | – | – | 0.9 | – | – | 1 | -1 | Growth Rate (Fibroblast; 6 h, replicate number 1): 0; Growth Rate (Fibroblast; 12 h, replicate number 1): 0.87; Growth Rate (Fibroblast; 18 h, replicate number 1): 0.98; Growth Rate (HEK-293T; 0 h, replicate number 1): 0.03; Growth Rate (HEK-293T; 12 h, replicate number 1): 0.97 |
| CN(C)C(=O)c1cc2cnc(Nc3ccc(N4CCN(CCCCNC(=O)COc5cccc6c5C(=O)N(C5CCC(=O)NC5=O)C6=O)CC4)cn3)nc2n1C1CCCC1 (configuration not stated) | 0.74 | – | 0.65 | – | – | 0.93 | – | 0.95 | – | – | – | 0.78 | 0.46 | 0.81 | -1 | – | 0.52 | 0.88 | 1 | -1 | Growth Rate (HEK-293T; 18 h, replicate number 2): 0.67; Growth Rate (HEK-293T; 24 h, replicate number 2): 0.81 |
| Cc1cc(NC(=O)c2cccc(NC(=O)/C=C/CN(C)C)c2)ccc1Nc1nccc(-c2cccnc2)n1 | – | – | – | 0.69 | – | 0.46 | 0.93 | 0.29 | 0.51 | 0.14 | -0.15 | 0.65 | -0.41 | -0.35 | -1 | -0.22 | -0.35 | -0.23 | -0.19 | -1 | Growth Rate (Fibroblast; 6 h, replicate number 1): 0.07; Growth Rate (Fibroblast; 6 h, replicate number 2): 0.32; Growth Rate (Fibroblast; 12 h, replicate number 1): -0.2; Growth Rate (Fibroblast; 18 h, replicate number 1): -0.24; Growth Rate (Fibroblast; 18 h, replicate number 2): -0.3; Growth Rate (Fibroblast; 24 h, replicate number 2): -0.29; Growth Rate (HEK-293T; 0 h, replicate number 1): 0; Growth Rate (HEK-293T; 12 h, replicate number 1): -0.26; Growth Rate (HEK-293T; 18 h, replicate number 2): -0.32; Growth Rate (HEK-293T; 24 h, replicate number 2): -0.26 |
| COc1cc([N+](=O)[O-])ccc1NC(=O)c1ccccc1O | -0.67 | 0.2 | 0.94 | 0.27 | 0.63 | 0.4 | 0.46 | 0.48 | 0.55 | 0.04 | 0.57 | 0.91 | -0.12 | -0.05 | 0.1 | – | -0.49 | -0.01 | 0.08 | – | Growth Rate (Fibroblast; 6 h, replicate number 1): -0.98; Growth Rate (Fibroblast; 18 h, replicate number 2): 0.65; Growth Rate (Fibroblast; 24 h, replicate number 2): 0.64; Growth Rate (HEK-293T; 12 h, replicate number 1): -0.12; Growth Rate (HEK-293T; 18 h, replicate number 2): -0.02; Growth Rate (HEK-293T; 24 h, replicate number 2): -0.01 |
| CO[C@H](C)CN1CC[C@]2(C)c3cccc(O)c3C[C@H]1C2(C)C.Cl | -0.73 | 0.44 | 0.57 | 0.7 | 0.71 | 0.92 | 0.84 | 0.84 | 0.92 | -0.48 | – | -0.19 | – | – | – | 0.9 | – | – | – | -1 | – |
